Read-outs that look alike come from different tables or passages of the source.
What was measured:
[1] = tested on: Aβ1–40 peptide secretion; conditions: SY5Y cells; cited from earlier work
[2] = tested on: SY5Y-APP^695WT cells; conditions: 50% cell death after 72 h treatment; read-out: Cytotox. CC50; cited from earlier work
[3] = tested on: AICD (APP intracellular domain); test: AICD level by Western blotting in SY5Y-APP^WT cells; assay type: cell-based, human; conditions: concentration increasing AICD 20-fold vs untreated control, read-out: AICD (C20)
Protocol: (§1) The final and selected intermediate compounds were evaluated for their ability to modulate APP processing in the SH-SY5Y human neuroblastoma cell line stably expressing the neuronal isoform of human wild-type APP^695 (SY5Y-APP^WT), a well-established model for the study of APP metabolism. APP carboxy-terminal fragments (αCTFs and AICD) levels were assessed by Western blotting (WB). The effect of the reference and test compounds on αCTFs and AICD is expressed as the intensity of corresponding WB bands. The concentration of compounds able to increase 20-times αCTFs and AICD (C20) when compared to the control condition was calculated. Selected compounds were also evaluated for their ability to modulate the secretion of soluble APP fragments (sAPPα and sAPPβ). Aβ1–x levels (Aβ1–40 and Aβ1–42) after treatment with the reference and tested compounds were measured in the cell media by ELISA (Table 1). […] Selected hit compounds were then further evaluated for their ability to decrease the level of N-truncated Aβ peptides (Aβx–38, Aβx–40, and Aβx–42).
(§2) The human neuroblastoma cell line SY5Y-APP^695WT was maintained in Dulbecco’s modified Eagle medium (DMEM, high glucose, pyruvate—GIBCO, Life Technologies, Carlsbad, CA, USA) supplemented with 10% fetal bovine serum, 2 mM L-glutamine, 1 mM non-essential amino acids and penicillin/streptomycin (GIBCO, Life Technologies, Carlsbad, CA, USA) at 37 °C in a 5% CO2 humidified incubator [36]. For compound treatment, a 10 mM stock solution was diluted in freshly supplemented DMEM medium to obtain the precise final concentration of the drug. Cells were plated at a density of 5 × 10^5 cells per well into 12-well plates and cultured with 1 mL supplemented DMEM cell medium for 24 h before compound exposure. The following day, the cell medium was replaced with fresh medium containing the compounds diluted at the indicated concentrations. Cells were treated for 24 h. At the end of the treatments, the cell medium was collected and kept at −80 °C until use, cells were rinsed once with PBS and extracted in 100 µL of Laemmli buffer (10 mM Tris, 20% glycerol, and 2% sodium dodecyl sulfate) using a cell-scraper. The cell lysate was further sonicated (30 pulses of 0.5 s, 60 Hz) for 5 min. Total protein concentration was determined using the Pierce BCA Protein Assay Kit (Thermo Scientific, Waltham, MA, USA) according to the manufacturer’s instructions. Samples were stored at −80 °C until analysis.
(§3) Cell protein lysates were prepared for Western blot analysis by diluting the sample with 1 volume of NuPAGE® lithium dodecyl sulfate (LDS) 2X sample buffer supplemented with 20% NuPAGE® sample reducing agents (Invitrogen). Samples were heated for 10 min at 100 °C. Ten µg of total proteins per well were loaded onto precast 4–12% Criterion XT Bis-Tris polyacrylamide gels (Bio-Rad) and electrophoresis was achieved after applying a tension of 150 V for 90 min using a Criterion electrophoresis cell with the NuPAGE® MOPS SDS running buffer (1X). Proteins were transferred to a nitrocellulose membrane of […] pore size (G&E Healthcare, Madison, WI, USA) using the Criterion blotting system and applying a tension of 100 V for 45 min. To resolve proteins of low molecular weights such as carboxy-terminal fragments of APP, 12% Criterion XT Bis-Tris polyacrylamide gels (Bio-Rad, Hercules, CA, USA) were used, and electrophoresis was performed for 70 min at 150 V in a NuPAGE® MES SDS running buffer (1X). Proteins were transferred to a nitrocellulose membrane of 0.2 µm pore size (G&E Healthcare, Madison, WI, USA) at 100 V for 40 min. Molecular weight calibration was achieved using molecular weight markers (Novex and Magic Marks, Life Technologies, Carlsbad, CA, USA). Protein transfer and quality were determined by a reversible Ponceau Red coloration (0.2% xylidine Ponceau Red and 3% trichloroacetic acid). […]

[4] = tested on: Aβ1–42 peptide secretion; test: Aβ1–42 secretion in cell medium by ELISA; assay type: cell-based, human; conditions: SY5Y-APP^WT cells, 24 h treatment, mean ± SD of at least three experiments in triplicate
Protocol: as §1, §2
(§4) Conditioned media of SY5Y-APP^695WT collected at the end of treatments were centrifuged at 1000× g for 5 min to eliminate cell debris.
(§5) Aβ1–40/Aβ1–42 peptides, Aβx–38/Aβx–40/Aβx–42, and sAPPα/sAPPβ concentrations in pg/mL were determined, respectively, using amyloid-beta 40 and 42 Human ELISA Kits (Invitrogen), the V-PLEX Plus Aβ Peptide Panel 1 (4G8) Kit (Meso Scale Diagnostics, MSD R©, Rockville, MD, USA), and the sAPPα/sAPPβ Multiplex Kit (Meso Scale Diagnostics, MSD R©, Rockville, MD, USA) according to the manufacturer’s instructions.

[5] = tested on: Aβ1–40 peptide secretion; test: Aβ1–40 secretion in cell medium by ELISA; assay type: cell-based, human
Protocol: as §1, §2, §4, §5

[6] = tested on: αCTF (APP carboxy-terminal fragment); test: αCTF level by Western blotting in SY5Y-APP^WT cells; assay type: cell-based, human; conditions: for EC (20-fold increase): concentration increasing αCTF 20-fold vs untreated control, SY5Y-APP^WT cells, read-out: αCTF (C20)
Protocol: as §1, §2, §3

[7] = tested on: sAPPβ secretion; test: sAPPβ secretion (MSD sAPPα/sAPPβ Multiplex Kit); assay type: cell-based, human; conditions: SY5Y cells, mean ± SD of at least three experiments in triplicate
Protocol: (§6) A selection of compounds with several selected activities was performed including sAPPα and sAPPβ, which were further explored. […] The decrease in Aβ could result from a decrease in either β- or γ-secretase cleavage or an increase in the α-secretase cleavage of APP. Thus, medium concentrations of sAPPβ and sAPPα, which are the β- and α-secretase extramembrane shed APP fragments, were determined after cell drug treatments.
as §2, §4, §5

[8] = tested on: sAPPα; test: sAPPα secretion (MSD sAPPα/sAPPβ Multiplex Kit); assay type: cell-based, human; conditions: concentration increasing sAPPα 1.5-fold vs untreated control
Protocol: as §6
as §2, with “The cell lysate was further sonicated (30 pulses of 0.5 s, 60 Hz) for 5 min.” left out, “Samples were stored at −80 °C until analysis.” left out
as §5

[9] = in vitro; assay type: cell-based, human; conditions: human
Protocol: (§7) Cytotoxicity was measured using 3-(4,5-dimethylthiazol-2-yl)-5-(3-carboxymethoxyphenyl)-2-(4-sulfophenyl)-2H-tetrazolium (MTS) tests. SY5Y-APP^695WT cells were plated in a 96-well plate at 3 × 10^4 cells per well and allowed to attach for 24 h. Cells were then incubated for 72 h with 100 µL of DMEM with 10% SVF containing (or not) the defined concentration of drugs. Cytotoxicity was determined by using the colorimetric MTS assay (Cell Titer 96® Aqueous One Solution Cell Proliferation Assay-MTS Promega, Madison, WI, USA) according to the manufacturer’s instructions. Absorbance was read at 490 nm.

[10] = tested on: p62/LC3; test: Ratio between p62 and LC3 expression levels; assay type: cell-based, human; conditions: compound at 3 µM, 24 h, SY5Y-APP^wt cells
Excerpt: Compounds from both series were selected to first determine the potential relationship between the repression of Aβ1–x production and the increased expression of LC3 and p62. […] We then also considered the ratio between the p62 and LC3 expression levels.
Figure 3 Effect of compounds 24, 33, 34, 57, 65, 67, 70, and 71 on the autophagic flux in SY5Y-APP^wt cells. […] Cell lysates were immunolabeled with the following antibodies: p62 (a), LC3 (b), and β-actin. Statistical significance was set at * p < 0.05, ** p < […], *[…], **** p < 0.0001, and ns as not significant.

[11] = tested on: SY5Y-APP^695WT cells; test: in vitro; assay type: cell-based, human
Protocol: as §7

Row | IC50 ([4]; Homo sapiens) [µM] | IC50 ([5]; Homo sapiens, Aβ1–40 and Aβ1–42 not distinguished, read-out: IC50 for Aβ secretion (Aβ1–x production)) [µM] | IC50 ([5]; Homo sapiens, SY5Y-APP^WT cells, 24 h treatment, mean ± SD of at least three experiments in triplicate, read-out: Aβ1–40 IC50) [µM] | IC50 ([7]; Homo sapiens) [µM] | IC50 [4] [µM] | IC50 ([5]; SY5Y-APP^WT cells, 24 h treatment, mean ± SD of at least three experiments in triplicate, read-out: Aβ1–40 IC50) [µM] | IC50 [7] [µM] | Compound | IC50 [1] [µM] | CC50 [2] [µM] | EC (20-fold increase) ([3]; Homo sapiens) [µM] | C20 for CTFα and AICD ([6]; CTFα and AICD together) | EC (20-fold increase) ([6]; Homo sapiens) [µM] | sAPPα C1.5 [8] [µM] | CC50 at 72 h [9] [µM] | EC (20-fold increase) [3] [µM] | p62/LC3 [10] | EC (20-fold increase) [6] [µM] | CC50 [11] [µM] | Cytotox. CC50 [11] [µM]
1 | – | – | – | – | – | – | – | CCN(CC)CCCC(C)Nc1ccnc2cc(Cl)ccc12 (centres unmarked) [CQ, chloroquine, reference compound] | 7 | 30 | – | – | – | – | – | – | – | – | – | –
2 | 1.6 ± 0.1 | ~1 | 1.4 ± 0.1 | 2.8 ± 1.1 | – | – | – | Cc1cn(-c2cccc(CN(C)CCCN(C)C)c2)nc1-c1ccc(CN(C)CCCN(C)C)cc1 [Compound 69, [3-(Dimethylamino)propyl][(4-{1-[3-({[3-(dimethylamino)propyl](methyl)amino}methyl)phenyl]-4-methyl-1H-pyrazol-3-yl}phenyl)methyl]methylamine] | – | – | 1 | around 1 µM | 0.6 | >5 | 2 | – | – | – | – | –
3 | – | – | – | – | 8.3 ± 0.2 | 5.7 ± 0.5 | 4.5 ± 0.7 | N′-[[3-[4-(Dimethylaminomethyl)-3-[4-[3-(dimethylamino)propyl]phenyl] Pyrazol-1-yl]phenyl]methyl]-N,N,N′-trimethyl-propane-1,3-diamine [Compound 34] | – | – | – | – | – | >10 | – | 1.9 | 0.91 | 1.1 | > 100 | 100

— paper PMC9658513, “Discovery of Compounds That Selectively Repress the Amyloidogenic Processing of the Amyloid Precursor Protein: Design, Synthesis and Pharmacological Evaluation of Diphenylpyrazoles” (International Journal of Molecular Sciences, 2022)
